# Numbers after ± are expanded uncertainties.
# Settings: for mass density / vapor or sublimation pressure / viscosity / speed of sound: Liquid; for vapor or sublimation pressure: Ebulliometric method (Recirculating still); for surface tension liquid-gas: Drop volume; for viscosity: Capillary tube (Ostwald / Ubbelohde) method; for speed of sound: Pulse-echo method
structure (smiles),measurement,setting,value
OCC1CCCO1 (stereo not given) [2-tetrahydrofurylmethanol],mass density,"313.15 K, 7500 kPa",1041.89 ± 0.46 kg/m3
same,mass density,"313.15 K, 10000 kPa",1043.41 ± 0.48 kg/m3
same,mass density,"313.15 K, 20000 kPa",1048.93 ± 0.57 kg/m3
same,mass density,"313.15 K, 30000 kPa",1054.21 ± 0.68 kg/m3
same,mass density,"313.15 K, 40000 kPa",1059.19 ± 0.81 kg/m3
same,mass density,"313.15 K, 50000 kPa",1063.91 ± 0.94 kg/m3
same,mass density,"313.15 K, 60000 kPa",1068.44 ± 1.1 kg/m3
same,vapor or sublimation pressure,313.15 K,0.21 ± 0.1 kPa
same,surface tension liquid-gas,315.65 K,35.74 ± 0.26 mN/m
same,viscosity,"315.65 K, 101.33 kPa",3.374 ± 0.072 mPa·s
same,speed of sound,"315.65 K, 101.33 kPa",1424.1 ± 1.2 m/s
same,mass density,"315.65 K, 101.33 kPa, Vibrating tube method",1035 ± 0.27 kg/m3
same,surface tension liquid-gas,318.15 K,35.48 ± 0.26 mN/m
same,mass density,"318.15 K, 100 kPa",1032.83 ± 0.39 kg/m3
same,viscosity,"318.15 K, 101.33 kPa",3.177 ± 0.067 mPa·s
same,speed of sound,"318.15 K, 101.33 kPa",1415.4 ± 1.2 m/s
same,mass density,"318.15 K, 101.33 kPa, Vibrating tube method",1032.83 ± 0.27 kg/m3
same,mass density,"318.15 K, 2500 kPa",1034.57 ± 0.41 kg/m3
same,mass density,"318.15 K, 5000 kPa",1036.11 ± 0.42 kg/m3
same,mass density,"318.15 K, 7500 kPa",1037.62 ± 0.44 kg/m3
same,mass density,"318.15 K, 10000 kPa",1039.11 ± 0.46 kg/m3
same,mass density,"318.15 K, 20000 kPa",1044.81 ± 0.55 kg/m3
same,mass density,"318.15 K, 30000 kPa",1050.15 ± 0.65 kg/m3
same,mass density,"318.15 K, 40000 kPa",1055.24 ± 0.77 kg/m3
same,mass density,"318.15 K, 50000 kPa",1060.12 ± 0.91 kg/m3
same,mass density,"318.15 K, 60000 kPa",1064.68 ± 1.1 kg/m3
same,vapor or sublimation pressure,318.15 K,0.31 ± 0.1 kPa
same,surface tension liquid-gas,320.65 K,35.23 ± 0.26 mN/m
same,viscosity,"320.65 K, 101.33 kPa",2.996 ± 0.064 mPa·s
same,speed of sound,"320.65 K, 101.33 kPa",1406.8 ± 1.2 m/s
same,mass density,"320.65 K, 101.33 kPa, Vibrating tube method",1030.65 ± 0.27 kg/m3
same,surface tension liquid-gas,323.15 K,34.98 ± 0.26 mN/m
same,mass density,"323.15 K, 100 kPa",1028.47 ± 0.39 kg/m3
same,viscosity,"323.15 K, 101.33 kPa",2.83 ± 0.06 mPa·s
same,speed of sound,"323.15 K, 101.33 kPa",1398.1 ± 1.2 m/s
same,mass density,"323.15 K, 101.33 kPa, Vibrating tube method",1028.47 ± 0.27 kg/m3
same,mass density,"323.15 K, 2500 kPa",1030.3 ± 0.4 kg/m3
same,mass density,"323.15 K, 5000 kPa",1031.87 ± 0.41 kg/m3
same,mass density,"323.15 K, 7500 kPa",1033.41 ± 0.43 kg/m3
same,mass density,"323.15 K, 10000 kPa",1034.93 ± 0.45 kg/m3
same,mass density,"323.15 K, 20000 kPa",1040.79 ± 0.53 kg/m3
same,mass density,"323.15 K, 30000 kPa",1046.28 ± 0.63 kg/m3
same,mass density,"323.15 K, 40000 kPa",1051.44 ± 0.74 kg/m3
same,mass density,"323.15 K, 50000 kPa",1056.41 ± 0.87 kg/m3
same,mass density,"323.15 K, 60000 kPa",1061.07 ± 1 kg/m3
same,vapor or sublimation pressure,323.15 K,0.43 ± 0.1 kPa
same,surface tension liquid-gas,325.65 K,34.72 ± 0.25 mN/m
same,viscosity,"325.65 K, 101.33 kPa",2.677 ± 0.057 mPa·s
same,speed of sound,"325.65 K, 101.33 kPa",1389.4 ± 1.2 m/s
same,mass density,"325.65 K, 101.33 kPa, Vibrating tube method",1026.28 ± 0.27 kg/m3
same,surface tension liquid-gas,328.15 K,34.47 ± 0.25 mN/m
same,mass density,"328.15 K, 100 kPa",1024.08 ± 0.38 kg/m3
same,viscosity,"328.15 K, 101.33 kPa",2.535 ± 0.054 mPa·s
same,speed of sound,"328.15 K, 101.33 kPa",1380.8 ± 1.2 m/s
same,mass density,"328.15 K, 101.33 kPa, Vibrating tube method",1024.08 ± 0.26 kg/m3
same,mass density,"328.15 K, 2500 kPa",1025.88 ± 0.39 kg/m3
same,mass density,"328.15 K, 5000 kPa",1027.49 ± 0.4 kg/m3
same,mass density,"328.15 K, 7500 kPa",1029.13 ± 0.42 kg/m3
same,mass density,"328.15 K, 10000 kPa",1030.63 ± 0.43 kg/m3
same,mass density,"328.15 K, 20000 kPa",1036.6 ± 0.51 kg/m3
same,mass density,"328.15 K, 30000 kPa",1042.2 ± 0.6 kg/m3
same,mass density,"328.15 K, 40000 kPa",1047.5 ± 0.71 kg/m3
same,mass density,"328.15 K, 50000 kPa",1052.52 ± 0.83 kg/m3
same,mass density,"328.15 K, 60000 kPa",1057.3 ± 0.97 kg/m3
same,vapor or sublimation pressure,328.15 K,0.63 ± 0.1 kPa
same,surface tension liquid-gas,330.65 K,34.22 ± 0.25 mN/m
same,viscosity,"330.65 K, 101.33 kPa",2.404 ± 0.051 mPa·s
same,speed of sound,"330.65 K, 101.33 kPa",1372.1 ± 1.2 m/s
same,mass density,"330.65 K, 101.33 kPa, Vibrating tube method",1021.88 ± 0.26 kg/m3
same,surface tension liquid-gas,333.15 K,33.96 ± 0.25 mN/m
same,mass density,"333.15 K, 100 kPa",1019.68 ± 0.37 kg/m3
same,viscosity,"333.15 K, 101.33 kPa",2.282 ± 0.049 mPa·s
same,speed of sound,"333.15 K, 101.33 kPa",1363.5 ± 1.2 m/s
same,mass density,"333.15 K, 101.33 kPa, Vibrating tube method",1019.68 ± 0.26 kg/m3
same,mass density,"333.15 K, 2500 kPa",1021.52 ± 0.38 kg/m3
same,mass density,"333.15 K, 5000 kPa",1023.18 ± 0.39 kg/m3
same,mass density,"333.15 K, 7500 kPa",1024.84 ± 0.4 kg/m3
same,mass density,"333.15 K, 10000 kPa",1026.39 ± 0.42 kg/m3
same,mass density,"333.15 K, 20000 kPa",1032.49 ± 0.49 kg/m3
same,mass density,"333.15 K, 30000 kPa",1038.22 ± 0.58 kg/m3
same,mass density,"333.15 K, 40000 kPa",1043.64 ± 0.68 kg/m3
same,mass density,"333.15 K, 50000 kPa",1048.73 ± 0.8 kg/m3
same,mass density,"333.15 K, 60000 kPa",1053.6 ± 0.93 kg/m3
same,vapor or sublimation pressure,333.15 K,0.86 ± 0.1 kPa
same,surface tension liquid-gas,335.65 K,33.71 ± 0.25 mN/m
same,viscosity,"335.65 K, 101.33 kPa",2.169 ± 0.046 mPa·s
same,speed of sound,"335.65 K, 101.33 kPa",1354.8 ± 1.2 m/s
same,mass density,"335.65 K, 101.33 kPa, Vibrating tube method",1017.46 ± 0.26 kg/m3
same,surface tension liquid-gas,338.15 K,33.46 ± 0.25 mN/m
same,mass density,"338.15 K, 100 kPa",1015.24 ± 0.36 kg/m3
same,viscosity,"338.15 K, 101.33 kPa",2.064 ± 0.044 mPa·s
same,speed of sound,"338.15 K, 101.33 kPa",1346.2 ± 1.2 m/s
same,mass density,"338.15 K, 101.33 kPa, Vibrating tube method",1015.24 ± 0.26 kg/m3
same,mass density,"338.15 K, 2500 kPa",1017.04 ± 0.37 kg/m3
same,mass density,"338.15 K, 5000 kPa",1018.75 ± 0.38 kg/m3
same,mass density,"338.15 K, 7500 kPa",1020.45 ± 0.39 kg/m3
same,mass density,"338.15 K, 10000 kPa",1022.06 ± 0.4 kg/m3
same,mass density,"338.15 K, 20000 kPa",1028.31 ± 0.47 kg/m3
same,mass density,"338.15 K, 30000 kPa",1034.16 ± 0.55 kg/m3
same,mass density,"338.15 K, 40000 kPa",1039.68 ± 0.65 kg/m3
same,mass density,"338.15 K, 50000 kPa",1044.89 ± 0.76 kg/m3
same,mass density,"338.15 K, 60000 kPa",1049.83 ± 0.88 kg/m3
same,vapor or sublimation pressure,338.15 K,1.15 ± 0.1 kPa
same,vapor or sublimation pressure,343.15 K,1.55 ± 0.1 kPa
same,vapor or sublimation pressure,348.15 K,2.11 ± 0.1 kPa
same,vapor or sublimation pressure,353.15 K,2.72 ± 0.1 kPa
same,vapor or sublimation pressure,358.15 K,3.53 ± 0.1 kPa
same,vapor or sublimation pressure,363.15 K,4.51 ± 0.1 kPa
same,vapor or sublimation pressure,368.15 K,5.72 ± 0.1 kPa
same,vapor or sublimation pressure,373.15 K,7.22 ± 0.1 kPa
same,vapor or sublimation pressure,378.15 K,9.11 ± 0.1 kPa
same,vapor or sublimation pressure,383.15 K,11.18 ± 0.1 kPa
same,vapor or sublimation pressure,388.15 K,13.68 ± 0.1 kPa
same,vapor or sublimation pressure,393.15 K,16.64 ± 0.1 kPa
same,vapor or sublimation pressure,398.15 K,20.17 ± 0.1 kPa
same,vapor or sublimation pressure,403.15 K,24.22 ± 0.1 kPa
same,vapor or sublimation pressure,408.15 K,28.63 ± 0.11 kPa
same,vapor or sublimation pressure,413.15 K,34.22 ± 0.11 kPa
same,vapor or sublimation pressure,418.15 K,40.19 ± 0.11 kPa
same,vapor or sublimation pressure,423.15 K,47.32 ± 0.12 kPa
same,vapor or sublimation pressure,428.15 K,56.31 ± 0.12 kPa
same,vapor or sublimation pressure,433.15 K,65.02 ± 0.13 kPa
same,vapor or sublimation pressure,438.15 K,74.02 ± 0.13 kPa
same,vapor or sublimation pressure,443.15 K,84.98 ± 0.14 kPa
same,vapor or sublimation pressure,448.15 K,97.93 ± 0.15 kPa

# From the NIST ThermoML archive (doi:10.1021/je400783h)
